The record followed here is ChEMBL document CHEMBL4715709, “Synthesis and evaluation of anticonvulsant properties of new N-Mannich bases derived from 3-(1-phenylethyl)- and 3-benzyl-pyrrolidine-2,5-dione” (Bioorg Med Chem Lett, 2016).

A short description of data set [1]: Protection index, ratio of TD50 for neurotoxicity in ip dosed mouse to ED50 for anticonvulsant activity in ip dosed mouse by subcutaneous pentylenetetrazole test. In kind it is toxicity, organism-based. As to conditions: in vivo, read-out: PI.
The test system of data set [2] is Mus musculus. As to the kind of experiment: Anticonvulsant activity in ip dosed mouse assessed as protection against tonic-clonic seizures by maximal electroshock seizure test. In kind it is functional.
The test system of data set [3] is Mus musculus. Description: Anticonvulsant activity in ip dosed mouse assessed as protection against ScPTZ-induced epilepsy by subcutaneous pentylenetetrazole test. It counts as functional.
Data set [4] in a line: Neurotoxicity activity in ip dosed mouse assessed as induction of motor impairment by rotarod test. In kind it is toxicity, organism-based. Particulars: in vivo.
Data set [5] in a line: Protection index, ratio of TD50 for neurotoxicity in ip dosed mouse to ED50 for anticonvulsant activity in ip dosed mouse by maximal electroshock seizure test. It counts as toxicity, organism-based. Particulars: in vivo, read-out: PI.

On to `O=C1CC(C(c2ccccc2)c2ccccc2)C(=O)N1CN1CCN(c2cccc(C(F)(F)F)c2)CC1` (stereo not given), for which the selectivity ratio in data set [1] was greater than 6.84; in data set [5] it was greater than 4.95. In addition, the values for the ED50 with Mus musculus [2] and in the data set on Mus musculus [3] were 101 mg/kg and 73 mg/kg, respectively. Besides, the TD50 in data set [4] was greater than 500 mg/kg.
